For 21 compounds, IC50 results are on record in patent US11174268B2, “Benzenesulfonamide compouds and their use as therapeutic agents” (Xenon Pharmaceuticals Inc., priority 2016, dated 2021).

For data set [1], the target named is T1, NaV1.6 (Homo sapiens (Human), UniProt Q9UQD0). As to the kind of experiment: Sodium Influx Assay (Flux), NaV1.6.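 Also: Tetracycline-induced cells, compounds applied for one hour at room temperature with modulators holding channels open, IC50 from percent inhibition of sodium influx.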 The data set is classed as cell-based. Particulars: Trex HEK293 cells, ANG2 dye, inactivated state.
Data set [2] deals with T1, NaV1.6. As to the kind of experiment: Electrophysiological Assay (EP), patch voltage clamp, NaV1.6.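 Also: sodium current recorded at ambient temperature, channels held inactivated then briefly repolarized to −150 mV for 20 ms before a test pulse, control currents in 0.5% DMSO.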 Type of data set: cell-based. The settings on record: HEK-293 cells, whole-cell patch clamp.
In data set [3] the target is T2, NaV1.1 (Homo sapiens (Human), UniProt P35498). Put plainly: Sodium Influx Assay (Flux), NaV1.1.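 Also: channels co-expressed with human β1 subunit and held open by modulators, cells exposed to compounds for one hour at room temperature, IC50 from percent inhibition of influx.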 Type of data set: cell-based. Particulars: Trex HEK293 cells, ANG2 dye, inactivated state.
The target in data set [4] is T2, NaV1.1. Put plainly: Electrophysiological Assay (EP), patch voltage clamp, NaV1.1.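 Also: sodium current block measured at ambient temperature, holding at fully inactivating potential, 20 ms repolarization to −150 mV before test pulse, versus 0.5% DMSO control currents.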 Type of data set: cell-based. Particulars: HEK-293 cells, whole-cell patch clamp. (In general: Patch clamp records ionic current or voltage across a cell membrane.)
Another data set addresses NaV1.5 (Homo sapiens (Human), UniProt Q14524). As to the kind of experiment: Sodium Influx Assay (Flux), NaV1.5.
Setting [5] is: read-out: Flux NaV1.5 IC50, Trex HEK293 cells, ANG2 dye, inactivated state.

Molecules are shown by their SMILES. pIC50: −log10 of the molar value. Where a name gives a salt, the structure may show the parent alone. Read-outs that look alike come from different tables or passages of the source.

T1 sequence (Q9UQD0 whole entry): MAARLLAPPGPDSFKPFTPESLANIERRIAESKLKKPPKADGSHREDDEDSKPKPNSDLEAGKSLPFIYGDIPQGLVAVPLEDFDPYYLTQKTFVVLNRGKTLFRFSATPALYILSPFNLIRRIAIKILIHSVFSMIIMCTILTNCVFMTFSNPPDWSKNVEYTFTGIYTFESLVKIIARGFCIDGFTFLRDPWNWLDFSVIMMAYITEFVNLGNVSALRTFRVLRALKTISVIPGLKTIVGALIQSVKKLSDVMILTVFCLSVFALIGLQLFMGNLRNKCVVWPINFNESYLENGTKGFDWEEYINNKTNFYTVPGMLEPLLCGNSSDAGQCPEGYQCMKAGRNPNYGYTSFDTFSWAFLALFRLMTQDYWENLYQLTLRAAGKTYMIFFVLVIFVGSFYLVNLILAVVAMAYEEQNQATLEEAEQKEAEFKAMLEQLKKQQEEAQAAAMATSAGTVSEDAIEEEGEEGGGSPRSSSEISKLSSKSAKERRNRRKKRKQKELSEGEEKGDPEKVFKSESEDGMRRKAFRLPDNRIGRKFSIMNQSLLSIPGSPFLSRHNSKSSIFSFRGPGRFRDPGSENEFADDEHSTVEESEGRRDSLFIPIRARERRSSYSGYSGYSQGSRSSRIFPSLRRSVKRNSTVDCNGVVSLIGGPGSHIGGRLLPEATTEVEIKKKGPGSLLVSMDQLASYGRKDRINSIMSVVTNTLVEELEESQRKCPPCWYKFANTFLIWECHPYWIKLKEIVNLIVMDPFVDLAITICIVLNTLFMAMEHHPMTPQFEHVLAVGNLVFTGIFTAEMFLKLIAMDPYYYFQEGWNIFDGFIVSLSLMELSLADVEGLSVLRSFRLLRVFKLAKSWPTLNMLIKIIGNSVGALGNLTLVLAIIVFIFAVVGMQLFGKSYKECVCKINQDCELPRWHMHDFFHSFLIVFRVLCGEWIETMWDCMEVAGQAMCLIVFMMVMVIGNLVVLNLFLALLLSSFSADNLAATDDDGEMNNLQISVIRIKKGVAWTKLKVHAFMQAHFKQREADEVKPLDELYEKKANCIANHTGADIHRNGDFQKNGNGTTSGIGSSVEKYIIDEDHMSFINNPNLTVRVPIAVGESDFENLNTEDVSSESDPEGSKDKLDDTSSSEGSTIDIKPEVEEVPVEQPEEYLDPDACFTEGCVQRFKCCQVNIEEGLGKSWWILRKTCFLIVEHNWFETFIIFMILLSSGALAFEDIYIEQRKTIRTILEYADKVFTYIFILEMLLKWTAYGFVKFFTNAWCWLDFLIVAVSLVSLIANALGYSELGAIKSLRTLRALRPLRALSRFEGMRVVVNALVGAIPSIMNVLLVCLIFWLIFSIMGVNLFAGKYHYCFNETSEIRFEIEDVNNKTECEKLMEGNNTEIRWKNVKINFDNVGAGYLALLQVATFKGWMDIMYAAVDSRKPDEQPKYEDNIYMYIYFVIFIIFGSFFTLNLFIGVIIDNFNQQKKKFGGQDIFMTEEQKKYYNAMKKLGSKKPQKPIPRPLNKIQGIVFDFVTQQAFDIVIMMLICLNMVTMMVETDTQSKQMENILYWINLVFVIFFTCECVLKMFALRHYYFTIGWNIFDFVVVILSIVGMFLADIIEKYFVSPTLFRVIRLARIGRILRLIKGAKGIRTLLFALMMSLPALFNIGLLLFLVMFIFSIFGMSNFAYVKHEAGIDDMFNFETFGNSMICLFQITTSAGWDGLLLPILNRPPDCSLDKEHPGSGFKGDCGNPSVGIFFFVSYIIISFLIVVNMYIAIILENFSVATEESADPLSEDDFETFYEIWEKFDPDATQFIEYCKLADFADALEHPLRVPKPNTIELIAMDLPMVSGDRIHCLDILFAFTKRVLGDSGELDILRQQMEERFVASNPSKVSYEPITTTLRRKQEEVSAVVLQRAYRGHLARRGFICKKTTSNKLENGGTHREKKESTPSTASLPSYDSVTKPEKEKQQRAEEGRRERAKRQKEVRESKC
Sequence of NaV1.5 (Q14524 other isoform, or with tags, fused parts or gaps): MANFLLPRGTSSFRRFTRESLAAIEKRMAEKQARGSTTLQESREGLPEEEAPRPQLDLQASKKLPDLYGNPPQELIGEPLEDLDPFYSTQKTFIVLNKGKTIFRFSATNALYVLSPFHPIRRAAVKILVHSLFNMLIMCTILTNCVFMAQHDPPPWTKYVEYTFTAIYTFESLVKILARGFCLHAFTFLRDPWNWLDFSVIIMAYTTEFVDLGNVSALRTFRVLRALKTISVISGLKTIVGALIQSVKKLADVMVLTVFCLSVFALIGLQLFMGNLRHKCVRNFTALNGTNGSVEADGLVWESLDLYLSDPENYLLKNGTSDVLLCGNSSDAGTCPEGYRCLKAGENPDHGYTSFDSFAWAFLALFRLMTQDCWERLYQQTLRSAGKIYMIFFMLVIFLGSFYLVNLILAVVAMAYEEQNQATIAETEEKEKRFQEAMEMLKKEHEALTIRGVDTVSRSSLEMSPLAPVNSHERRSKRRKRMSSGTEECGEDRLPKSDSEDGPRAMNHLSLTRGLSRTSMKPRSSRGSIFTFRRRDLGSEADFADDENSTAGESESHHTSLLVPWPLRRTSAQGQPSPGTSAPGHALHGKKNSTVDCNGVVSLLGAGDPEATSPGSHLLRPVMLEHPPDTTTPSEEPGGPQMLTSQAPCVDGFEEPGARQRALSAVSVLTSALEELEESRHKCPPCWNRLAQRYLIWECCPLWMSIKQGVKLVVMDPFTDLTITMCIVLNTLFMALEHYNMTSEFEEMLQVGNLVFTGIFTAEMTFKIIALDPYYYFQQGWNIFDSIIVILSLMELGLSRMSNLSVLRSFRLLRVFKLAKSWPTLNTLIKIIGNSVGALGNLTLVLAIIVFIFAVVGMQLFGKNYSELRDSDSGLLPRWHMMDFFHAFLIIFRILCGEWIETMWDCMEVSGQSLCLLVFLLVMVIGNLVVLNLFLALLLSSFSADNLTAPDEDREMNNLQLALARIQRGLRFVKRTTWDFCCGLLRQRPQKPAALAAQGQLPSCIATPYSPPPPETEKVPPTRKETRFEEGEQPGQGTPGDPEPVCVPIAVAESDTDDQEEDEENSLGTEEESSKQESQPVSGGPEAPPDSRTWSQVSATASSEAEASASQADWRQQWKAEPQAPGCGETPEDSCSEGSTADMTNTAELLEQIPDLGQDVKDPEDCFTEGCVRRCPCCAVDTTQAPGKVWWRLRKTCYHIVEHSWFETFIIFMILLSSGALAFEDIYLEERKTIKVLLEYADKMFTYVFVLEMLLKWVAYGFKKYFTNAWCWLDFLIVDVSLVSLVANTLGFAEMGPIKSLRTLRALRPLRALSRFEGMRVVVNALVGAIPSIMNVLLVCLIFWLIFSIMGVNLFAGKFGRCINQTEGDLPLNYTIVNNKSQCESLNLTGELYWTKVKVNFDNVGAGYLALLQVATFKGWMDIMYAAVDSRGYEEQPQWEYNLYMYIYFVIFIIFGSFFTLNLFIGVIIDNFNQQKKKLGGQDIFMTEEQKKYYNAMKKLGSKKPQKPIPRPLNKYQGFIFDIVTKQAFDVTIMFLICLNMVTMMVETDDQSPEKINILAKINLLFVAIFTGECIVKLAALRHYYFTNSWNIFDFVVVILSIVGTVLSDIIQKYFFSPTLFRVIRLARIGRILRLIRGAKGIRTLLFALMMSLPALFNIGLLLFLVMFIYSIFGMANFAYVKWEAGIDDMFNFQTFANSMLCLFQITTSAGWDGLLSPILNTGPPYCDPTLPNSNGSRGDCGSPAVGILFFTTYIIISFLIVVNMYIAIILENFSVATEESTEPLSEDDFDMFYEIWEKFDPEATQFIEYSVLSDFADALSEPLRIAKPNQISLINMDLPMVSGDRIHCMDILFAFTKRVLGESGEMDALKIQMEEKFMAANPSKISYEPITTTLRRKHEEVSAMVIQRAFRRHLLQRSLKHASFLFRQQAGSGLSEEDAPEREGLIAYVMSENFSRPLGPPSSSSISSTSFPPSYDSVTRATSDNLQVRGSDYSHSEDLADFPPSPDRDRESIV

One may read the pIC50 as the IC50 on a negative log10 scale, so that one unit is a factor of ten. Regarding `O=S(=O)(Nc1cscn1)c1ccc(NCc2c(F)cccc2CN2CCC2)c(Cl)c1F` [Example 192, 4-((2-(azetidin-1-ylmethyl)-6-fluorobenzyl)amino)-3-chloro-2-fluoro-N-(thiazol-4-yl)benzenesulfonamide formate], the pIC50 on NaV1.6 [1] was 7.14; on NaV1.6 [2], 7.82; against NaV1.1 [3], 4.79; against NaV1.1 [4] it was 5.00; on NaV1.5 (setting [5]) it was 5.07.
On to `O=S(=O)(Nc1cscn1)c1c(F)cc(NCc2c(F)cccc2CN2CC(F)C2)cc1F` [Example 194, 2,6-difluoro-4-((2-fluoro-6-((3-fluoroazetidin-1-yl)methyl)benzyl)amino)-N-(thiazol-4-yl)benzenesulfonamide formate], for which the pIC50 on NaV1.6 [1] was 6.64; against NaV1.6 [2], 7.37; at NaV1.1 [3], 5.07; against NaV1.1 [4], 5.00; at NaV1.5 (setting [5]) it was 4.52.
Turning to `C[C@H](Nc1cc(F)c(S(=O)(=O)Nc2ccncn2)c(F)c1)c1cc(Cl)ccc1F` [Example 206, (S)-4-((1-(5-chloro-2-fluorophenyl)ethyl)amino)-2,6-difluoro-N-(pyrimidin-4-yl)benzenesulfonamide 2,2,2-trifluoroacetate], the pIC50 against NaV1.6 [1] is 6.35; against NaV1.6 [2] it was 7.12; on NaV1.1 [3], 5.15; against NaV1.1 [4], 5.00; on NaV1.5 (setting [5]) it was 4.52.
For `C[C@H](Nc1cc(F)c(S(=O)(=O)Nc2cscn2)c(F)c1)c1cc(Cl)ccc1F` [Example 207, (S)-4-((1-(5-chloro-2-fluorophenyl)ethyl)amino)-2,6-difluoro-N-(thiazol-4-yl)benzenesulfonamide 2,2,2-trifluoroacetate] the same measures were 6.38, 6.92, 5.36, 5.09 and 5.02.
Regarding `COc1cccc(CN2CCC2)c1CNc1cc(F)c(S(=O)(=O)Nc2cscn2)c(F)c1` [Example 209, 4-((2-(azetidin-1-ylmethyl)-6-methoxybenzyl)amino)-2,6-difluoro-N-(thiazol-4-yl)benzenesulfonamide 2,2,2-trifluoroacetate], the negative logarithm of the IC50 (pIC50) against NaV1.6 [1] is 6.50; on NaV1.6 [2], 7.12; at NaV1.1 [3], 4.56; against NaV1.1 [4] it was 5.00; on NaV1.5 (setting [5]), 4.52.
For `O=S(=O)(Nc1cscn1)c1cc(Cl)c(NC2(c3cc(F)ccc3F)CC2)cc1F` [Example 225, 5-chloro-4-((1-(2,5-difluorophenyl)cyclopropyl)amino)-2-fluoro-N-(thiazol-4-yl)benzenesulfonamide] the same measures were 5.70, 6.13, 5.01, 5.00 and 5.35.
For the compound `C[C@H](Nc1cc(F)c(S(=O)(=O)Nc2cnccn2)cc1Cl)c1cc(Cl)ccc1F` [Example 243], the pIC50 against NaV1.6 [1] was 5.06; on NaV1.6 [2], 5.20; on NaV1.1 [3], not above 4.52; against NaV1.1 [4], 5.00; on NaV1.5 it was not above 4.52.
`O=S(=O)(Nc1cscn1)c1cc(Cl)c(NCc2c(F)cccc2CN2CC(F)C2)cc1F` [Example 247, 5-chloro-2-fluoro-4-((2-fluoro-6-((3-fluoroazetidin-1-yl)methyl)benzyl)amino)-N-(thiazol-4-yl)benzenesulfonamide]: the pIC50 on NaV1.6 [1] is 5.21; against NaV1.6 [2], 6.39; on NaV1.1 [3] it was 4.60; against NaV1.1 [4], 5.00; on NaV1.5 (setting [5]), 4.52.
For `CC[C@H](Nc1cc(F)c(S(=O)(=O)Nc2ncc(F)s2)cc1Cl)c1ccccc1` [Example 265, (S)-5-chloro-2-fluoro-N-(5-fluorothiazol-2-yl)-4-((1-phenylpropyl)amino)benzenesulfonamide], in that order: 6.71, 7.74, 6.10, 7.30 and 4.90.
For `C[C@H](Nc1cc(F)c(S(=O)(=O)Nc2ncc(F)s2)cc1Cl)c1ccccc1F` [Example 266, (S)-5-chloro-2-fluoro-4-((1-(2-fluorophenyl)ethyl)amino)-N-(5-fluorothiazol-2-yl)benzenesulfonamide] the same measures were 6.93, 7.82, 6.12, 6.88 and 5.26.
In the case of `C[C@H](Nc1cc(F)c(S(=O)(=O)Nc2nccs2)cc1Cl)c1cc(F)ccc1F` [Example 268, (S)-5-chloro-4-((1-(2,5-difluorophenyl)ethyl)amino)-2-fluoro-N-(thiazol-2-yl)benzenesulfonamide], the pIC50 on NaV1.6 [1] was 7.46; on NaV1.6 [2] it was 8.00; against NaV1.1 [3] it was 6.41; against NaV1.1 [4] it was 6.48; on NaV1.5 (setting [5]), 5.43.
Turning to `O=S(=O)(Nc1ccncn1)c1cc(Cl)c(N[C@H](c2cc(Cl)ccc2F)C(F)(F)F)cc1F` [Example 270, (R)-5-chloro-4-((1-(5-chloro-2-fluorophenyl)-2,2,2-trifluoroethyl)amino)-2-fluoro-N-(pyrimidin-4-yl)benzenesulfonamide], the pIC50 against NaV1.6 [1] was 6.67; against NaV1.6 [2], 7.74; against NaV1.1 [3], 4.90; at NaV1.1 [4], 5.00; on NaV1.5 (setting [5]), 4.96.
In the case of `C[C@H](Nc1ccc(S(=O)(=O)Nc2ccncn2)cc1C(F)(F)F)c1cc(F)ccc1F` [Example 273, (S)-4-((1-(2,5-difluorophenyl)ethyl)amino)-N-(pyrimidin-4-yl)-3-(trifluoromethyl)benzenesulfonamide], the pIC50 against NaV1.6 [1] is 6.05; on NaV1.6 [2] it was 6.91; against NaV1.1 [3], 4.52; at NaV1.1 [4] it was 5.00; on NaV1.5 (setting [5]), 4.52.
For `Cc1cc(S(=O)(=O)Nc2ccncn2)c(F)cc1N[C@@H](C)c1cc(Cl)ccc1F` [Example 275, (S)-4-((1-(5-chloro-2-fluorophenyl)ethyl)amino)-2-fluoro-5-methyl-N-(pyrimidin-4-yl)benzenesulfonamide], the negative logarithm of the IC50 (pIC50) on NaV1.6 [1] was 6.76; against NaV1.6 [2] it was 7.60; at NaV1.1 [3], 5.27; at NaV1.1 [4], 5.31; on NaV1.5 (setting [5]), 4.52.
For `C[C@H](Nc1cc(F)c(S(=O)(=O)Nc2ncco2)cc1Cl)c1cc(F)ccc1F` [Example 287, (S)-5-Chloro-4-((1-(2,5-difluorophenyl)ethyl)amino)-2-fluoro-N-(oxazol-2-yl)benzenesulfonamide] the same measures were 5.82, 6.33, 4.60, 5.00 and 4.52.
For `O=S(=O)(Nc1cscn1)c1cc(Cl)c(NCc2c(F)ccc(F)c2CN2CCC2)cc1F` [Example 288, 4-((2-(Azetidin-1-ylmethyl)-3,6-difluorobenzyl)amino)-5-chloro-2-fluoro-N-(thiazol-4-yl)benzenesulfonamide hydrochloride] the same measures were 6.74, 7.44, 4.93, 5.00 and 4.75.
For `O=S(=O)(Nc1cscn1)c1c(F)cc(NCc2c(Cl)cccc2CN2CCC2)cc1F` [Example 290, 4-((2-(azetidin-1-ylmethyl)-6-chlorobenzyl)amino)-2,6-difluoro-N-(thiazol-4-yl)benzenesulfonamide 2,2,2-trifluoroacetate], in that order: 7.00, 7.96, 5.22, 5.00 and 4.60.
Consider `O=S(=O)(Nc1cscn1)c1cc(Cl)c(NCc2c(F)ccc(F)c2CO)cc1F` [Example 293, 5-Chloro-4-((3,6-difluoro-2-(hydroxymethyl)benzyl)amino)-2-fluoro-N-(thiazol-4-yl)benzenesulfonamide], for which the negative-log IC50 (pIC50) was 6.37 against NaV1.6 [1]; 6.69 at NaV1.6 [2]; 4.90 at NaV1.1 [3]; 5.00 on NaV1.1 [4]; 4.52 on NaV1.5 (setting [5]).
Consider `O=S(=O)(Nc1cscn1)c1c(F)cc(NCc2c(Cl)cccc2CN2CC3(COC3)C2)cc1F` [Example 295, 4-((2-((2-oxa-6-azaspiro[3.3]heptan-6-yl)methyl)-6-chlorobenzyl)amino)-2,6-difluoro-N-(thiazol-4-yl)benzenesulfonamide formate], for which the negative logarithm of the IC50 (pIC50) on NaV1.6 [1] was 6.42; at NaV1.6 [2] it was 7.38; against NaV1.1 [3], 4.92; against NaV1.1 [4], 5.00; at NaV1.5 (setting [5]), 4.52.
For `CC[C@H](Nc1cc(F)c(S(=O)(=O)Nc2cccc(F)n2)cc1Cl)c1ccccc1F` [Example 316, (S)-5-chloro-2-fluoro-4-((1-(2-fluorophenyl)propyl)amino)-N-(6-fluoropyridin-2-yl)benzenesulfonamide], in that order: 6.02, 6.58, 5.60, 5.25 and 5.23.
For `CN1CC(Oc2cccc(F)c2CNc2cc(F)c(S(=O)(=O)Nc3cscn3)c(F)c2)C1` [Example 326, 2,6-difluoro-4-((2-fluoro-6-((1-methylazetidin-3-yl)oxy)benzyl)amino)-N-(thiazol-4-yl)benzenesulfonamide formate], in that order: 6.90, 7.05, 5.10, 5.00 and 4.90.
